Where “and” joins values, the source holds several entries; their conditions need not be identical. Equal values may be shown once. Inconclusive results and toxic doses are left out.
Test system: L1210 leukemia ip in BDF1 mice, survival T/C
Experiment: NCI In Vivo Anticancer Drug Screen. Data for tumor model L1210 Leukemia (intraperitoneal) in B6D2F1 (BDF1) mice
Conditions: endpoint: mean survival time, higher = longer survival
Summary of the method: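 Tumor was transplanted into mice, which were then dosed with test compound or vehicle alone. Survival was recorded for each group, and the treated figure was expressed relative to the control figure.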

[1] = dose: 100.0 mg/kg/injection, schedule: Q01DX009 (ip), vehicle: Klucel (hydroxypropylcellulose) (HPC)
[2] = dose: 400.0 mg/kg/injection, schedule: Q01DX009 (ip), vehicle: Klucel (hydroxypropylcellulose) (HPC)
[3] = dose: 100.0 mg/kg/injection, schedule: Q01DX009 (ip), vehicle: saline
[4] = dose: 200.0 mg/kg/injection, schedule: Q01DX009 (ip), vehicle: saline
[5] = dose: 400.0 mg/kg/injection, schedule: Q01DX009 (ip), vehicle: saline
[6] = dose: 100.0 mg/kg/injection, schedule: Q04DX003 (ip), vehicle: saline with Tween-80
[7] = dose: 200.0 mg/kg/injection, schedule: Q04DX003 (ip), vehicle: saline with Tween-80
[8] = dose: 400.0 mg/kg/injection, schedule: Q04DX003 (ip), vehicle: saline with Tween-80
[9] = dose: 100.0 mg/kg/injection, schedule: Q01DX009 (ip), vehicle: saline with Tween-80
[10] = dose: 200.0 mg/kg/injection, schedule: Q01DX009 (ip), vehicle: saline with Tween-80
[11] = dose: 400.0 mg/kg/injection, schedule: Q01DX009 (ip), vehicle: saline with Tween-80
[12] = dose: 100.0 mg/kg/injection, schedule: Q01DX001 (ip), vehicle: other
[13] = dose: 200.0 mg/kg/injection, schedule: Q01DX001 (ip), vehicle: other
[14] = dose: 400.0 mg/kg/injection, schedule: Q01DX001 (ip), vehicle: other
[15] = dose: 25.0 mg/kg/injection, schedule: Q04DX003 (ip), vehicle: saline with Tween-80
[16] = dose: 100.0 mg/kg/injection, schedule: Q04DX003 (ip), vehicle: saline
[17] = dose: 200.0 mg/kg/injection, schedule: Q04DX003 (ip), vehicle: saline
[18] = dose: 50.0 mg/kg/injection, schedule: Q01DX001 (ip), vehicle: saline
[19] = dose: 100.0 mg/kg/injection, schedule: Q01DX001 (ip), vehicle: saline
[20] = dose: 200.0 mg/kg/injection, schedule: Q01DX001 (ip), vehicle: saline
[21] = dose: 400.0 mg/kg/injection, schedule: Q01DX001 (ip), vehicle: saline

SMILES: CC(=O)N(C)N=Nc1ccc(C)cc1
- T/C (dose: 25.0 mg/kg/injection, schedule: Q01DX009 (ip), vehicle: Klucel (hydroxypropylcellulose) (HPC)): 116 % of control
- T/C (dose: 25.0 mg/kg/injection, schedule: Q04DX003 (ip), vehicle: other): 101 % of control
- T/C (dose: 50.0 mg/kg/injection, schedule: Q01DX009 (ip), vehicle: Klucel (hydroxypropylcellulose) (HPC)): 110 % of control
- T/C (dose: 50.0 mg/kg/injection, schedule: Q04DX003 (ip), vehicle: other): 106 % of control
- T/C [1]: 102 % of control and 108 % of control
- T/C (dose: 100.0 mg/kg/injection, schedule: Q04DX003 (ip), vehicle: other): 118 % of control
- T/C (dose: 200.0 mg/kg/injection, schedule: Q04DX003 (ip), vehicle: other): 123 % of control
- T/C [2]: 105 % of control and 123 % of control

SMILES: CCCCN(CCCC)S(=O)(=O)CC
- T/C (dose: 100.0 mg/kg/injection, schedule: Q04DX002 (ip), vehicle: saline with Tween-80): 100 % of control
- T/C (dose: 200.0 mg/kg/injection, schedule: Q04DX002 (ip), vehicle: saline with Tween-80): 98 % of control
- T/C (dose: 400.0 mg/kg/injection, schedule: Q04DX002 (ip), vehicle: saline with Tween-80): 95 % of control

SMILES: CCOC(CCc1c(C)nc[nH]c1=O)OCC
- T/C [3]: 90 % of control
- T/C [4]: 98 % of control
- T/C [5]: 95 % of control

SMILES: CNS(=O)(=O)c1c(C)cccc1CC(=O)c1ccccc1
- T/C (dose: 100.0 mg/kg/injection, schedule: Q01DX001 (ip), vehicle: steriod suspending solution): 96 % of control
- T/C (dose: 400.0 mg/kg/injection, schedule: Q01DX001 (ip), vehicle: steriod suspending solution): 94 % of control

SMILES: Oc1ccc(C2=NNC(c3ccc(O)cc3)=NN2)cc1
- T/C (dose: 100.0 mg/kg/injection, schedule: Q04DX002 (ip), vehicle: Klucel (hydroxypropylcellulose) (HPC)): 105 % of control
- T/C (dose: 200.0 mg/kg/injection, schedule: Q04DX002 (ip), vehicle: Klucel (hydroxypropylcellulose) (HPC)): 97 % of control
- T/C (dose: 400.0 mg/kg/injection, schedule: Q04DX002 (ip), vehicle: Klucel (hydroxypropylcellulose) (HPC)): 94 % of control

SMILES: CC(=O)OCc1cccnc1
- T/C [6]: 95 % of control
- T/C [7]: 94 % of control
- T/C [8]: 97 % of control

SMILES: CC(=O)NC(=O)CC(O)(c1ccccc1)c1ccccc1
- T/C [9]: 96 % of control
- T/C [10]: 91 % of control
- T/C [11]: 92 % of control

SMILES: Cc1cc(C(C)(C)C)cc(O)c1O
- T/C [12]: 113 % of control
- T/C [13]: 93 % of control
- T/C [14]: 93 % of control

SMILES: O=C1CCN(C2(c3ccccc3)CCCCC2)CC1
- T/C (dose: 100.0 mg/kg/injection, schedule: Q04DX002 (ip), vehicle: saline): 92 % of control
- T/C (dose: 200.0 mg/kg/injection, schedule: Q04DX002 (ip), vehicle: saline): 103 % of control
- T/C (dose: 400.0 mg/kg/injection, schedule: Q04DX002 (ip), vehicle: saline): 97 % of control

SMILES: CNC(=S)C(=S)NC
- T/C (dose: 12.5 mg/kg/injection, schedule: Q04DX003 (ip), vehicle: saline with Tween-80): 94 % of control
- T/C [15]: 95 % of control

SMILES: Cc1ccc(S(=O)(=O)NCCN)cc1
- T/C [16]: 97 % of control
- T/C [17]: 97 % of control

SMILES: CCOC(=O)Nc1cc(Cl)cc(NC(=O)OCC)n1
- T/C [12]: 94 % of control
- T/C [9]: 96 % of control
- T/C [6]: 107 % of control
- T/C [13]: 102 % of control
- T/C [10]: 106 % of control
- T/C [7]: 100 % of control
- T/C [14]: 96 % of control
- T/C [11]: 96 % of control
- T/C [8]: 108 % of control

SMILES: O=NN(CCCl)C(=O)Nc1ccccc1
- T/C (dose: 2.0 mg/kg/injection, schedule: Q01DX Z (ip), vehicle: carboxymethylcellulose (CMC)): 114 % of control
- T/C (dose: 4.0 mg/kg/injection, schedule: Q01DX Z (ip), vehicle: carboxymethylcellulose (CMC)): 169 % of control
- T/C (dose: 6.0 mg/kg/injection, schedule: Q01DX Z (ip), vehicle: carboxymethylcellulose (CMC)): 160 % of control and 213 % of control
- T/C (dose: 10.0 mg/kg/injection, schedule: Q01DX Z (ip), vehicle: carboxymethylcellulose (CMC)): 102 % of control
- T/C (dose: 14.0 mg/kg/injection, schedule: Q01DX Z (ip), vehicle: carboxymethylcellulose (CMC)): 102 % of control
- T/C (dose: 18.0 mg/kg/injection, schedule: Q01DX001 (ip), vehicle: carboxymethylcellulose (CMC)): 123 % of control
- T/C (dose: 18.0 mg/kg/injection, schedule: Q01DX Z (ip), vehicle: carboxymethylcellulose (CMC)): 174 % of control
- T/C (dose: 20.0 mg/kg/injection, schedule: Q01DX Z (ip), vehicle: carboxymethylcellulose (CMC)): 166 % of control
- T/C (dose: 25.0 mg/kg/injection, schedule: Q01DX Z (ip), vehicle: carboxymethylcellulose (CMC)): 107 % of control and 89 % of control
- T/C (dose: 72.0 mg/kg/injection, schedule: Q01DX001 (ip), vehicle: carboxymethylcellulose (CMC)): 114 % of control

SMILES: O=C(O)Cc1ccc2ccccc2c1
- T/C [18]: 101 % of control
- T/C [19]: 103 % of control
- T/C [20]: 107 % of control
- T/C [21]: 103 % of control

SMILES: O=C(O)c1cc([N+](=O)[O-])ccc1F
- T/C (dose: 75.0 mg/kg/injection, schedule: Q01DX001 (ip), vehicle: acetone): 95 % of control
- T/C (dose: 150.0 mg/kg/injection, schedule: Q01DX001 (ip), vehicle: acetone): 103 % of control

SMILES: CC12CCC3c4ccc(O)c(N)c4CCC3C1CCC2=O (stereo not drawn)
- T/C (dose: 100.0 mg/kg/injection, schedule: Q01DX001 (ip), vehicle: Klucel (hydroxypropylcellulose) (HPC)): 102 % of control
- T/C (dose: 200.0 mg/kg/injection, schedule: Q01DX001 (ip), vehicle: Klucel (hydroxypropylcellulose) (HPC)): 102 % of control
- T/C (dose: 400.0 mg/kg/injection, schedule: Q01DX001 (ip), vehicle: Klucel (hydroxypropylcellulose) (HPC)): 101 % of control

SMILES: COc1ccc(C(=O)C(=O)c2ccccc2Cl)cc1
- T/C (dose: 100.0 mg/kg/injection, schedule: Q01DX005 (ip), vehicle: saline with Tween-80): 104 % of control
- T/C [9]: 96 % of control
- T/C (dose: 200.0 mg/kg/injection, schedule: Q01DX005 (ip), vehicle: saline with Tween-80): 101 % of control
- T/C [10]: 107 % of control
- T/C (dose: 400.0 mg/kg/injection, schedule: Q01DX005 (ip), vehicle: saline with Tween-80): 101 % of control
- T/C [11]: 100 % of control

SMILES: CCN(CC)C(=S)SS(C)(=O)=O
- T/C [19]: 101 % of control
- T/C (dose: 100.0 mg/kg/injection, schedule: Q04DX003 (ip), vehicle: acetone): 97 % of control
- T/C [20]: 97 % of control
- T/C (dose: 200.0 mg/kg/injection, schedule: Q04DX003 (ip), vehicle: acetone): 103 % of control
- T/C [21]: 97 % of control
- T/C (dose: 400.0 mg/kg/injection, schedule: Q04DX003 (ip), vehicle: acetone): 101 % of control

SMILES: Cc1cccc2c1NC(C)C2C (stereo not drawn)
- T/C [3]: 102 % of control
- T/C [16]: 96 % of control
- T/C [4]: 98 % of control
- T/C [17]: 93 % of control
- T/C [5]: 98 % of control
- T/C (dose: 400.0 mg/kg/injection, schedule: Q04DX003 (ip), vehicle: saline): 93 % of control

SMILES: Cc1cc(Cl)c2ccccc2c1N
- T/C [9]: 106 % of control
- T/C [6]: 104 % of control
- T/C [10]: 96 % of control
- T/C [7]: 102 % of control
- T/C [11]: 98 % of control
- T/C [8]: 100 % of control

SMILES: O=[N+]([O-])c1ccccc1CC1=NCCc2cc3c(cc21)OCO3
- T/C [19]: 100 % of control
- T/C [20]: 102 % of control
- T/C [21]: 104 % of control

SMILES: CCCCCCCCC[As](=O)(O)CCCCCCCCC
- T/C [18]: 101 % of control
- T/C [19]: 98 % of control
- T/C [20]: 98 % of control
- T/C [21]: 101 % of control

SMILES: Cc1ccc(NC(=O)Nc2ccccc2Cl)c(C)c1
- T/C (dose: 100.0 mg/kg/injection, schedule: Q01DX001 (ip), vehicle: carboxymethylcellulose (CMC)): 93 % of control
- T/C (dose: 200.0 mg/kg/injection, schedule: Q01DX001 (ip), vehicle: carboxymethylcellulose (CMC)): 101 % of control
- T/C (dose: 400.0 mg/kg/injection, schedule: Q01DX001 (ip), vehicle: carboxymethylcellulose (CMC)): 98 % of control

SMILES: Cc1cccc(C)c1N=C=S
- T/C [15]: 100 % of control
- T/C (dose: 50.0 mg/kg/injection, schedule: Q04DX003 (ip), vehicle: saline with Tween-80): 96 % of control
- T/C [6]: 98 % of control

SMILES: O=C(O)/C=C\C(=O)Nc1ccc2c(c1)OCO2
- T/C [1]: 98 % of control
- T/C (dose: 200.0 mg/kg/injection, schedule: Q01DX009 (ip), vehicle: Klucel (hydroxypropylcellulose) (HPC)): 94 % of control
- T/C [2]: 91 % of control

Source: PubChem BioAssay AID248 (DTP/NCI, 2004)
